The source of these data is patent publication US20230139056A1, “METHODS, COMPOSITIONS AND REAGENTS FOR PREPARING COMPOUNDS” (Regents of the University of Minnesota, priority 2021, published 2023).

The target of the test is T1, SyrB2 halogenase (Pseudomonas syringae pv. syringae, UniProt Q9RBY6).
T1 construct: His-tag (inferred from the pET-28a(+) vector and Ni HisTrap purification); made in house; host or cells: E. coli BL21-Gold (DE3)
In words: Fluorination assay of Thr by SyrB2 halogenase with ligator (LC-MS/MS). In kind it is biochemical. The protocol: In an anaerobic glovebag (98% N2/2% H2, Coy Laboratories), all plasticware, solutions, and solids were allowed to equilibrate overnight before use. Stock solutions of RXN buffer (20 mM HEPES, pH=7.5), 20G (100 mM in RXN buffer, pH=7.5), NOG (150 mM in RXN buffer, pH=7.5), and Milli-Q water were degassed using a vacuum manifold on a Schlenk Line apparatus. At least three cycles of vacuum and subsequent equilibration with Argon gas were performed before transfer to the glovebag. Halide Salts (NaCl, NaF) and ferrous ammonium sulfate (FAS) were transferred to the glovebag the day before use.
Stock SyrB1-PPT-Thr and SyrB2 were thawed on ice-water and centrifuged to remove any possible precipitate. Stock proteins were diluted in RXN buffer and transferred to individual ReactiVials (Thermo) sealed with septa on a pre-cooled ReactiBlock (Thermo). Protein was deoxygenated by piercing the ReactiVials with needles and purging the headspace with a continuous flow of Argon gas for 1 hr while continuously stirring the protein solution on ice bath. Reactivials were sealed and transferred to the glovebag. While deoxygenating the protein, halide salts were dissolved in RXN buffer in the glovebag. To individual 1.7 mL tubes, RXN buffer, ligand (NOG or 2OG), and halide (NaCl or NaF) were added and cooled to 4° C. The ReactiVials containing the proteins were sealed and transferred to the glovebag. […]

T1 sequence (Q9RBY6 whole entry): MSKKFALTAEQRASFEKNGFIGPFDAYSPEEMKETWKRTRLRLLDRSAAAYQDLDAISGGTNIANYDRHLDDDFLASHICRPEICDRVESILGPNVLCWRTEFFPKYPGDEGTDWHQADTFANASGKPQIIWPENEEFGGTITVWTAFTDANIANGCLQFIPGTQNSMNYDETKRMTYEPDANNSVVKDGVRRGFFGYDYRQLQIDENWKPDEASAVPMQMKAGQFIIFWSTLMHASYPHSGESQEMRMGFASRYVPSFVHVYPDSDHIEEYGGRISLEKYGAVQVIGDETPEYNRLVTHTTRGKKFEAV

Turning to `O=C(O)CNC(=O)C(=O)O` [NOG, N-oxalylglycine], the “side products (hydroxylated substrates) observed” value (in some of the reaction conditions with ligator) is listed as “little to no side products”. Where the note is “ligator 1 mM, NaF 10 mM, LC-MS/MS (FIG. 3)”, the “fluorination of Thr amino acid by SyrB2 halogenase” value is given as “enabling fluorination of Thr amino acid”.
